Measurements published in patent publication US7498406B2, “Substantially cell membrane impermeable compound and use thereof” (priority 1999, dated 2009).
Read-outs that look alike come from different tables or passages of the source.

Assays:
[1] = Binding of GSAO to dithiol, loss of thiols in DTNB assay; conditions: for Kd: errors are 1 SD, read-out: Dissociation Constant
Experimental: FIG. 12. Interaction of GSAO with synthetic, peptide and protein dithiols. DMP (A) (15 μM), 6,8-thioctic acid (B) ([…]), dithiothreitol (C) (8.5 μM), TrpCysGlyProCysLys (D) (4.6 μM), TrpCysGlyHisCysLys (E) (5.5 μM) or thioredoxin (F) (4.1 μM corresponding to 20.6 μM thiols) was incubated with GSAO (0-56 μM) for 10 minutes. DTNB (950 μM) was then added and the reactions incubated for a further 10 minutes. The concentration of thiol in the reactions was determined from the absorbance of the TNB dianion at 412 nm. The solid lines represent the best non-linear least squares fit of the data to Equation 1 (A to E) or Equation 2 (F) and have been drawn using the parameter estimates in Table 1. The dotted line in part A represents a simulated titration assuming an infinite affinity of GSAO for the dithiol. GSAO bound to both synthetic, peptide and protein dithiols with dissociation constants in the range 130 nM to 1.4 μM.
A stock solution of DMP (5 μL, 50 μmol) was dissolved in DMSO (995 μL), giving a concentration of 50 mM DMP, A second dilution of the 50 mM DMP stock solution (10 μL) in pH 7.0 buffer (0.1 M HEPES, 0.3 M NaCl, 1 mM EDTA) (990 μL) gave a working solution of 500 ? M DMP. The activity of the arsenical could then be determined by the titration of varying amounts of arsenical against the DMP working solution (10 μL) in a 96-well microtitre plate, with the total volume made up to 195 μL by addition of buffer. After a 10 minute incubation at room temperature, during which time the solutions were agitated on a plate shaker, 5 μL of a 37.9 mM stock solution of DTNB (15 mg) in DMSO (1 mL) was added, and the plate incubated with shaking for another 10 minutes. The absorbance at 412 nm due to the formation of the TNB dianion was measured using a Molecular Devices Thermomax Plus (Palo Alto, Calif.) microplate reader. The extinction coefficient for the TNB dianion at pH 7.0 is 14, 150 M^−1cm^−1 at 412 nm (Riddles et al., 1983).
Binding of GSAO to dithiols was measured from loss of thiols using the DTNB assay described above. The dissociation constant, Kd, for GSAO binding to dithiols was determined by incubating increasing concentrations of GSAO, I, with a fixed dithiol concentration, [S]T, and measuring the remaining dithiol using DTNB. Note that the concentration of dithiol equals half the TNB concentration. The concentration of dithiol.GSAO complex, SI, as a function of the total GSAO concentration, [I]T, is described by Equation 1 (Hogg and Jackson, 1990), [SI]=0.5.{([S]T+x.[I]T+Kd)−(([S]T+x.[I]T+Kd)^2−4.[S]T.x.[I]T)^0.5} (1)
where x is a factor that, when multiplied together with [I]T, will yield the active concentration of GSAO. […]

[2] = tested on: HMEC-1 or HUVE cells; assay: GSAO-B labelling of endothelial cell surface proteins; assay type: cell-based, human; conditions: 100 μM, 30 minutes
Experimental: FIG. 16. Identification of endothelial cell surface proteins that contain closely spaced dithiols). A The surface of HMEC-1 or HUVE cells (2×10^6 cells in 0.4 mL) was labelled with GSAO-B (100 μM) for 30 minutes at room temperature in the absence (lanes 1 and 3) or presence of DMP (400 μM) (lane 2). The endothelial cells were lysed and the lysate from both incubations was resolved on 4-15% SDS-PAGE, transferred to PVDF membrane, and blotted with streptavidin peroxidase to detect the GSAO-B label. The results represent labelling of 3×10^4 HMEC-1 (lanes 1 and 2) of HUVE cells (lane 3). The positions of Mr markers are shown at left. B Densitometry profile of the surface labelled proteins (lanes 1 and 3). The apparent Mr's of the individual proteins are indicated.
Human umbilical vein endothelial cells (HUVEC) (Wall et al., 1978) and the human dermal microvascular endothelial cell line, HMEC-1 (Ades et al., 1992), were harvested and cultured as indicated. Endothelial cells (5×10^6) were detached from culture flasks using 5 mM EDTA in PBS at 37° C., washed 3 times with PBS, resuspended in PBS containing 100 μM of GSAO-B in the absence or presence of 400 μM DMP, and incubated for 30 minutes at room temperature. The cells were washed 3 times with 1 mL of PBS, resuspended in 0.2 mL of ice cold 50 mM Tris/HCl, pH 8 buffer containing 0.5 M NaCl, 1% Triton X-100, 10 μM leupeptin, 2 mM PMSF (Sigma Chemical Company, St, Louis, Mo.), 5 mM EDTA and 10 μM aprotinin (Bayer Australia Ltd., Sydney, NSW), and sonicated on ice. On some occasions the cell lysates were incubated with streptavidin-agarose (Sigma, Castle Hill, NSW) beads (25 μL of packed beads in a total volume of 1 mL) for 60 minutes at 4° C. with rotary mixing. Bound proteins were washed 5 times with 50 mM Tris/HCl, pH 8 buffer containing 0.15 M NaCl and 0.05% Triton X-100, resolved on SDS-PAGE, transferred to PVDF membrane, and the GSAO-B-labeled proteins detected by Western blot.

[3] = tested on: A3.01 cells; assay: Cell number and cell viability in the HIVIIIB assay; assay type: cell-based, human
Experimental: FIG. 33. […] Cells were washed and incubated in complete medium at 5% CO2 and 37° C. for up to 10 days. […] B Concentration dependence of GSAO. […] Cells were washed, incubated in complete medium at 5% CO2 and 37° C. for 3 days and the conditioned medium collected and assayed for p24 antigen.
FIG. 34. Inhibition of HIVIIIB infection of A3.01 cells by GSAO.
A3.01 human T cells were exposed to GSAO for 30 minutes and then to HTLVIIIB virus for 2 hours after which the cells were washed and then cultured for up to 10 days. HTLVIIIB and A3.01 cells were obtained from the NIH AIDS Research and Reference Reagent Program, Rockville, Mass. Virus stocks were made and infectivity titer determined using A3.01 cells and the p24 antigen assay (Coulter, Miami, Fla.). A3.01 cells were cultured in RPMI medium containing 10% fetal calf serum. […] Cell numbers and cell viability were determined at the times specified by staining cells with trypan blue and counting using a Neubauer haemacytometer. Cell viability was measured as a percentage of live cells to total cells.

SMILES: NC(CCC(=O)NC(CSCC(=O)Nc1ccc([As]=O)cc1)C(=O)NCC(=O)O)C(=O)O (centres unmarked) [GSAO, 4-(N-(S-glutathionylacetyl)amino)-phenylarsenoxide]
- interaction with DMP in DTNB titration ([1]; DMP 15 μM, GSAO 0-50 μM, 10 minutes): bound to DMP and prevented interaction of the dithiol with DTNB
- Kd ([1]; ring size 5): 0.13 µM
- Kd ([1]; ring size 6): 0.2 ± 0.05 µM
- Kd ([1]; ring size 7): 0.42 µM
- proteins on the endothelial cell surface that bind the compound [2]: ten distinct proteins
- effect on cell proliferation ([3]; 10 μM in the culture medium): small inhibitory effect on cell proliferation
- effect on cell viability ([3]; 10 μM in the culture medium): no effect on cell viability
- effect on cell proliferation or cell viability ([3]; up to 100 μM, pre-incubation only): no effect on cell proliferation or cell viability
